Experimental data from patent US11053251B2, “GPR35 modulators” (Prometheus Biosciences, Inc., priority 2019, dated 2021).
pEC50: −log10 of the molar value.

Target: Human GPR35 (Homo sapiens, UniProt Q9HC97, S294R)
Test: Alternative Beta-Arrestin Assay (JumpIn 294R Tango U2OS cells, LiveBLAzer-FRET B/G)
Type: cell-based
Details: for pEC50: Human GPR35 expressing JumpIn 294R Tango U2OS cells, 5 hours treatment; for % inhibition at 50 μM: Table 2
Procedure, shortened: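 U2OS Tango cells expressing human GPR35 S294R, plated overnight, exposed to serially diluted compounds for 5 hours. β-lactamase reporter read with LiveBLAzer-FRET B/G (CCF4-AM) after 2 h; EC50 from four-parameter fit, zaprinast as positive control.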

Chain of Human GPR35 (Q9HC97 whole entry S294R): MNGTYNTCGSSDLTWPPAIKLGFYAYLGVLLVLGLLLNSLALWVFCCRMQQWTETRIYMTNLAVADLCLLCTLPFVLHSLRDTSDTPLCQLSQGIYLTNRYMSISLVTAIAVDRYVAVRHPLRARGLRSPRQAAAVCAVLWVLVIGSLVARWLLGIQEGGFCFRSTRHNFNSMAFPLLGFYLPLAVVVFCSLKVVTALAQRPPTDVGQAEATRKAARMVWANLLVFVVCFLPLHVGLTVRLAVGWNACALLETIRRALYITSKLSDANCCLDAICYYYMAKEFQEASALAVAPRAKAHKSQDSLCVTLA

## O=C(O)c1cc(-c2ccc(-c3nc4[nH]nnc4c(=O)[nH]3)c(OC3CCCC3)c2)ccc1O [Compound 200, 3′-(Cyclopentyloxy)-4-hydroxy-4′-(7-oxo-6,7-dihydro-3H-[1,2,3]triazolo[4,5-d]pyrimidin-5-yl)-[1,1′-biphenyl]-3-carboxylic acid]
  pEC50: ≥ 5.00

## CCOc1cc(-c2cc(O)cc(C(=O)O)c2)ccc1-c1nc2[nH]nnc2c(=O)[nH]1 [Compound 198, 3′-Ethoxy-5-hydroxy-4′-(7-oxo-6,7-dihydro-3H-[1,2,3]triazolo[4,5-d]pyrimidin-5-yl)-[1,1′-biphenyl]-3-carboxylic acid]
  pEC50: ≥ 5.00

## CCOc1cc(-c2ccc3c(c2)CC(C)(C)C(=O)O3)ccc1-c1nc2[nH]nnc2c(=O)[nH]1 [Compound 305, 5-(4-(3,3-dimethyl-2-oxochroman-6-yl)-2-ethoxyphenyl)-3,6-dihydro-7H-[1,2,3]triazolo[4,5-d]pyrimidin-7-one]
  pEC50: ≥ 5.00

## CCOc1cc(-c2cccc(O[C@H](CC)C(=O)O)c2)ccc1-c1nc2[nH]nnc2c(=O)[nH]1 (single isomer, unassigned) [Compound 253]
  pEC50: ≥ 5.00

## CCOc1cc(-c2ccc(OCCN(C)C)c(CCC(=O)O)c2)ccc1-c1nc2[nH]nnc2c(=O)[nH]1 [Compound 320, 3-(4-(2-(dimethylamino)ethoxy)-3′-ethoxy-4′-(7-oxo-6,7-dihydro-3H-[1,2,3]triazolo[4,5-d]pyrimidin-5-yl)-[1,1′-biphenyl]-3-yl)propanoic acid]
  pEC50: ≥ 5.00

## CCOc1cc(-c2cccc([C@@H]3C[C@H]3C(=O)O)c2)ccc1-c1nc2[nH]nnc2c(=O)[nH]1 (single isomer, unassigned) [Compound 278, trans-2-(3′-ethoxy-4′-(7-oxo-6,7-dihydro-3H-[1,2,3]triazolo[4,5-d]pyrimidin-5-yl)-[1,1′-biphenyl]-3-yl)cyclopropane-1-carboxylic acid]
  pEC50: ≥ 5.00

## CCOc1cc(-c2cc(O)cc(OC(C)C(=O)O)c2)ccc1-c1nc2[nH]nnc2c(=O)[nH]1 (centres unmarked) [Compound 276, 2-((3′-ethoxy-5-hydroxy-4′-(7-oxo-6,7-dihydro-3H-[1,2,3]triazolo[4,5-d]pyrimidin-5-yl)-[1,1′-biphenyl]-3-yl)oxy)propanoic acid]
  pEC50: ≥ 5.00

## CCOC(=O)Cc1cccc(-c2ccc(-c3nc4[nH]nnc4c(=O)[nH]3)c(OCC)c2)c1 [Compound 294, ethyl 2-(3′-ethoxy-4′-(7-oxo-6,7-dihydro-3H-[1,2,3]triazolo[4,5-d]pyrimidin-5-yl)-[1,1′-biphenyl]-3-yl)acetate]
  pEC50: ≥ 5.00

## CCOc1cc(-c2cccc(C(C)(C)C(=O)O)c2)ccc1-c1nc2[nH]nnc2c(=O)[nH]1 [Compound 298, 2-(3′-ethoxy-4′-(7-oxo-6,7-dihydro-3H-[1,2,3]triazolo[4,5-d]pyrimidin-5-yl)-[1,1′-biphenyl]-3-yl)-2-methylpropanoic acid]
  pEC50: ≥ 5.00

## CCOc1cc(-c2ccc(OCCN3CCCC3)c(/C=C/C(=O)O)c2)ccc1-c1nc2[nH]nnc2c(=O)[nH]1 [Compound 317, (E)-3-(3′-ethoxy-4′-(7-oxo-6,7-dihydro-3H-[1,2,3]triazolo[4,5-d]pyrimidin-5-yl)-4-(2-(pyrrolidin-1-yl)ethoxy)-[1,1′-biphenyl]-3-yl)acrylic acid]
  pEC50: ≥ 5.00

## CCCNc1cc(-c2nc3[nH]nnc3c(=O)[nH]2)ccc1-c1ccc(C(=O)O)cc1 [Compound 291, 4′-(7-oxo-6,7-dihydro-3H-[1,2,3]triazolo[4,5-d]pyrimidin-5-yl)-2′-(propylamino)-[1,1′-biphenyl]-4-carboxylic acid]
  pEC50: ≥ 5.00

## CC(C)OC(=O)COc1cccc(-c2ccc(-c3nc4[nH]nnc4c(=O)[nH]3)c(OC3CCCC3)c2)c1 [Compound 271, isopropyl 2-((3′-(cyclopentyloxy)-4′-(7-oxo-6,7-dihydro-3H-[1,2,3]triazolo[4,5-d]pyrimidin-5-yl)-[1,1′-biphenyl]-3-yl)oxy)acetate]
  pEC50: ≥ 5.00

## CCOc1cc(-c2cc(O)cc(O[C@@H](CC)C(=O)O)c2)ccc1-c1nc2[nH]nnc2c(=O)[nH]1 (single isomer, unassigned) [Compound 259]
  pEC50: ≥ 5.00

## CCOC(=O)C1(Cc2cccc(-c3ccc(-c4nc5[nH]nnc5c(=O)[nH]4)c(OCC)c3)c2)CCC1 [Compound 245, ethyl 1-((3′-ethoxy-4′-(7-oxo-6,7-dihydro-3H-[1,2,3]triazolo[4,5-d]pyrimidin-5-yl)-[1,1′-biphenyl]-3-yl)methyl)cyclobutane-1-carboxylate]
  % inhibition at 50 μM: 12% inhibition at

## CCOc1cc(-c2ccc(C(=O)O)o2)ccc1-c1nc2[nH]nnc2c(=O)[nH]1 [Compound 189, 5-(3-ethoxy-4-(7-oxo-6,7-dihydro-3H-[1,2,3]triazolo[4,5-d]pyrimidin-5-yl)phenyl)furan-2-carboxylic acid]
  pEC50: ≥ 5.00

## CCOc1cc(-c2cccc(CC(CC)C(=O)O)c2)ccc1-c1nc2[nH]nnc2c(=O)[nH]1 (single isomer, unassigned) [Compound 241, 2-((3′-ethoxy-4′-(7-oxo-6,7-dihydro-3H-[1,2,3]triazolo[4,5-d]pyrimidin-5-yl)-[1,1′-biphenyl]-3-yl)methyl)butanoic acid]
  pEC50: ≥ 5.00

## O=C(O)c1cccc(-c2ccc(-c3nc4[nH]nnc4c(=O)[nH]3)c(OC3CCCC3)c2)c1O [Compound 209, 3′-(Cyclopentyloxy)-2-hydroxy-4′-(7-oxo-6,7-dihydro-3H-[1,2,3]triazolo[4,5-d]pyrimidin-5-yl)-[1,1′-biphenyl]-3-carboxylic acid]
  pEC50: ≥ 5.00

## CCOc1cc(-c2ccc(C(=O)O)c(N)c2)ccc1-c1nc2[nH]nnc2c(=O)[nH]1 [Compound 204, 3-Amino-3′-ethoxy-4′-(7-oxo-6,7-dihydro-3H-[1,2,3]triazolo[4,5-d]pyrimidin-5-yl)-[1,1′-biphenyl]-4-carboxylic acid]
  pEC50: ≥ 5.00

## CCOc1cc(-c2cccc(/C=C/C(=O)O)c2)ccc1-c1nc2[nH]nnc2c(=O)[nH]1 [Compound 235, (E)-3-(3′-ethoxy-4′-(7-oxo-6,7-dihydro-3H-[1,2,3]triazolo[4,5-d]pyrimidin-5-yl)-[1,1′-biphenyl]-3-yl)acrylic acid]
  pEC50: ≥ 5.00

## CCOc1cc(-c2cc(C(=O)O)cs2)ccc1-c1nc2[nH]nnc2c(=O)[nH]1 [Compound 190, 5-(3-ethoxy-4-(7-oxo-6,7-dihydro-3H-[1,2,3]triazolo[4,5-d]pyrimidin-5-yl)phenyl)thiophene-3-carboxylic acid]
  pEC50: ≥ 5.00

## O=C(O)c1ccc(-c2ccc(-c3nc4[nH]nnc4c(=O)[nH]3)c(OC3CCCC3)c2)cn1 [Compound 233, 5-(3-(Cyclopentyloxy)-4-(7-oxo-6,7-dihydro-3H-[1,2,3]triazolo[4,5-d]pyrimidin-5-yl)phenyl)picolinic acid]
  pEC50: ≥ 5.00

## CCOc1cc(-c2cc(OCC(=O)OC)cc(C(=O)OC)c2)ccc1-c1nc2[nH]nnc2c(=O)[nH]1 [Compound 218, Methyl 3′-ethoxy-5-(2-methoxy-2-oxoethoxy)-4′-(7-oxo-6,7-dihydro-3H-[1,2,3]triazolo[4,5-d]pyrimidin-5-yl)-[1,1′-biphenyl]-3-carboxylate]
  pEC50: ≥ 5.00

## CN(C)CCOc1cc(-c2ccc(C(=O)O)cc2)ccc1-c1nc2[nH]nnc2c(=O)[nH]1 [Compound 228, 3′-(2-(Dimethylamino)ethoxy)-4′-(7-oxo-6,7-dihydro-3H-[1,2,3]triazolo[4,5-d]pyrimidin-5-yl)-[1,1′-biphenyl]-4-carboxylic acid]
  % inhibition at 50 μM: 16% inhibition at

## CCOc1cc(-c2nc(C(=O)O)cs2)ccc1-c1nc2[nH]nnc2c(=O)[nH]1 [Compound 187, 2-(3-ethoxy-4-(7-oxo-6,7-dihydro-3H-[1,2,3]triazolo[4,5-d]pyrimidin-5-yl)phenyl)thiazole-4-carboxylic acid]
  pEC50: ≥ 5.00

## CCOc1cc(-c2cccc(O[C@H](C)C(=O)O)c2)ccc1-c1nc2[nH]nnc2c(=O)[nH]1 (single isomer, unassigned) [Compound 251]
  pEC50: ≥ 5.00

## CCNc1cc(-c2nc3[nH]nnc3c(=O)[nH]2)ccc1-c1ccc(C(=O)O)cc1 [Compound 292, 2′-(ethylamino)-4′-(7-oxo-6,7-dihydro-3H-[1,2,3]triazolo[4,5-d]pyrimidin-5-yl)-[1,1′-biphenyl]-4-carboxylic acid]
  pEC50: ≥ 5.00

## O=C(O)c1ccc(-c2ccc(-c3nc4[nH]nnc4c(=O)[nH]3)cc2NCc2ccccc2)cc1 [Compound 290, 2′-(benzylamino)-4′-(7-oxo-6,7-dihydro-3H-[1,2,3]triazolo[4,5-d]pyrimidin-5-yl)-[1,1′-biphenyl]-4-carboxylic acid]
  pEC50: ≥ 5.00

## O=C(O)COc1cccc(-c2ccc(-c3nc4[nH]nnc4c(=O)[nH]3)c(OC3CCCC3)c2)c1 [Compound 216, 2-((3′-(Cyclopentyloxy)-4′-(7-oxo-6,7-dihydro-3H-[1,2,3]triazolo[4,5-d]pyrimidin-5-yl)-[1,1′-biphenyl]-3-yl)oxy)acetic acid]
  pEC50: ≥ 5.00

## CCOc1cc(-c2cccc(/C=C(/C)C(=O)O)c2)ccc1-c1nc2[nH]nnc2c(=O)[nH]1 (single isomer, unassigned) [Compound 236, (Z)-3-(3′-ethoxy-4′-(7-oxo-6,7-dihydro-3H-[1,2,3]triazolo[4,5-d]pyrimidin-5-yl)-[1,1′-biphenyl]-3-yl)-2-methylacrylic acid]
  pEC50: ≥ 5.00

## CCOC(=O)COc1cccc(-c2ccc(-c3nc4[nH]nnc4c(=O)[nH]3)c(OC3CCCC3)c2)c1 [Compound 270, ethyl 2-((3′-(cyclopentyloxy)-4′-(7-oxo-6,7-dihydro-3H-[1,2,3]triazolo[4,5-d]pyrimidin-5-yl)-[1,1′-biphenyl]-3-yl)oxy)acetate]
  pEC50: ≥ 5.00

## CCOc1cc(-c2cccc(C(=O)O)c2F)ccc1-c1nc2[nH]nnc2c(=O)[nH]1 [Compound 186, 3′-ethoxy-2-fluoro-4′-(7-oxo-6,7-dihydro-3H-[1,2,3]triazolo[4,5-d]pyrimidin-5-yl)-[1,1′-biphenyl]-3-carboxylic acid]
  pEC50: ≥ 5.00

## CCOc1cc(-c2ccc(NCC(=O)O)cc2)ccc1-c1nc2[nH]nnc2c(=O)[nH]1 [Compound 215, (3′-Ethoxy-4′-(7-oxo-6,7-dihydro-3H-[1,2,3]triazolo[4,5-d]pyrimidin-5-yl)-[1,1′-biphenyl]-4-yl)glycine]
  pEC50: ≥ 5.00
